Drawing on patent US9133183B2, “Imidazolidinones and analogs exhibiting anti-cancer and anti-proliferative activities” (Deciphera Pharmaceuticals, LLC, priority 2013, dated 2015), this text covers IC50 for eleven compounds.

One test concerns osteoclast precursors. Put plainly: Osteoclast tartrate-resistant acid phosphatase assay. The following applies: 7-14 days, RANKL and M-CSF. In kind it is cell-based. The protocol: Osteoclast Tartrate-Resistant Acid Phosphatase Assay
A serial dilution of test compound was dispensed into a 384-well black clear bottom plate (Nalge Nunc International, Rochester, N.Y.). Compound was diluted by the addition of DMEM media supplemented with 10% characterized fetal bovine serum (Invitrogen, Carlsbad, Calif.). Diluted compound was transferred to a 384-well black clear bottom plate. Two-thousand five hundred osteoclast precursors (Lonza, Walkersville, Md.) were added per well in growth media containing Receptor Activator of Nuclear Factor Kappa-beta ligand (RANKL) and M-CSF (R&D Systems, Minneapolis, Minn.). Plates were incubated for 7-14 days at 37 degrees Celsius, 5% CO2, and 95% humidity to allow differentiation of osteoclast precursors. At the end of the incubation period, 10 μL of supernatant from each well was transferred to a clear 384-well plate. Tartrate-resistant acid phosphatase activity in the supernatant samples was determined using an acid phosphatase assay kit (Sigma, St. Louis, Mo.). Absorbance was measured at 550 nm using a plate reader. Data was analyzed using Prism software (Graphpad, San Diego, Calif.) to calculate IC50 values.

Test [1] addresses unphosphorylated PDGFRβ kinase (uPDGFRβ, Seq. ID No. 3) (Homo sapiens (Human), UniProt P09619). Briefly: Unphosphorylated PDGFRβ kinase assay (coupled pyruvate kinase/lactate dehydrogenase). In kind it is biochemical. The following applies: enzymatic assay, ATP 500 μM. Here is the method:
Unphosphorylated PDGFRβ (uPDGFRβ) Kinase (Seq. ID No. 3) Assay
Activity of unphosphorylated PDGFRβ kinase (uPDGFRβ, Seq. ID No. 3) was determined by following the production of ADP from the kinase reaction with ATP and poly E4Y as substrates through coupling with the pyruvate kinase/lactate dehydrogenase system (e.g., Schindler et al. Science (2000) 289: 1938-1942). In this assay, the oxidation of NADH (thus the decrease at A340 nm) was continuously monitored spectrophometrically. The reaction mixture (100 μL) contained PDGFRβ (DeCode, 15.7 nM), polyE4Y (2.5 mg/mL), MgCl2 (10 mM), pyruvate kinase (4 units), lactate dehydrogenase (0.7 units), phosphoenol pyruvate (1 mM) and NADH (0.28 mM) and ATP (500 μM) in a 90 mM Tris buffer containing 0.2% octyl-glucoside and 1% DMSO, at pH 7.5. The inhibition reaction was started by mixing serial diluted test compound with the above reaction mixture. The absorption at 340 nm was monitored continuously for 4 h at 30° C. on a Polarstar Optima or Synergy 2 plate reader. The reaction rate was calculated using the 1.5 to 2.5 h time frame. Percent inhibition was obtained by comparison of reaction rate with that of a control (i.e., with no test compound). IC50 values were calculated from a series of percent inhibition values determined at a range of inhibitor concentrations using software routines as implemented in the GraphPad Prism software package.
uPDGFRβ Kinase Sequence (Residues 557-1106) Used for Screening (Seq ID No. 3)

The target of test [2] is unphosphorylated c-FMS kinase (uFMS, Seq. ID no. 1) (Homo sapiens (Human), UniProt P07333). Briefly: uFMS kinase assay (ADP production coupled to pyruvate kinase/lactate dehydrogenase). In kind it is biochemical. The settings on record: enzymatic assay, ATP 500 μM; read-out: uFMS. Here is the method: uFMS kinase (Seq. ID No. 1) Assay
unphosphorylated c-FMS kinase (uFMS, Seq. ID no. 1), sequence (P07333 538-972): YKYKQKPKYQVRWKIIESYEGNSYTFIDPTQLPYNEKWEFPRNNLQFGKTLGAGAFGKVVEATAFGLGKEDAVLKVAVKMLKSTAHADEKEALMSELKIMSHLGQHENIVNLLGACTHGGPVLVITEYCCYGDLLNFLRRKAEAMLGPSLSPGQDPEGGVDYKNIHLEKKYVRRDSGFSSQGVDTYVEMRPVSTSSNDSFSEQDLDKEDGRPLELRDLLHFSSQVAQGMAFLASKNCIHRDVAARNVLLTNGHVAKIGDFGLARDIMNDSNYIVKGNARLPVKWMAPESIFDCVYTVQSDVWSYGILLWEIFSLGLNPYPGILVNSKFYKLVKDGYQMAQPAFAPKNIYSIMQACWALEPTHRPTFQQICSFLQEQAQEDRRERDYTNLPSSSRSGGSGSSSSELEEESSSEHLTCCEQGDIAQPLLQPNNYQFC
In this assay, the oxidation of NADH (thus the decrease at A340 nm) was continuously monitored spectrophometrically. The reaction mixture (100 μL) contained FMS (purchased from Millipore) (10 nM), polyE4Y (1 mg/mL), MgCl2 (10 mM), pyruvate kinase (4 units), lactate dehydrogenase (0.7 units), phosphoenol pyruvate (1 mM), NADH (0.28 mM) and ATP (500 μM) in 90 mM Tris buffer containing 0.2% octyl-glucoside and 1% DMSO, pH 7.5. The inhibition reaction was started by mixing serial diluted test compound with the above reaction mixture. The absorption at 340 nm was monitored continuously for 4 hours at 30° C. on Synergy 2 plate reader. The reaction rate was calculated using the 3 to 4 h time frame. Percent inhibition was obtained by comparison of reaction rate with that of a control (i.e., in the absence of test compound). IC50 values were calculated from a series of percent inhibition values determined at a range of inhibitor concentrations using software routines as implemented in the GraphPad Prism software package.
uFMS Kinase Sequence (Y538-End) Used for Screening (Seq. ID No. 1)

For another test, the system named is M-NFS-60 cells. Put plainly: M-NFS-60 cell proliferation assay (resazurin). In kind it is cell-based. The following applies: 67 h incubation. The protocol: M-NFS-60 cells (catalog #CRL-1838) were obtained from the American Type Culture Collection (ATCC, Manassas, Va.). Briefly, cells were grown in suspension in RPMI 1640 medium supplemented with 10% characterized fetal bovine serum (Invitrogen, Carlsbad, Calif.), 0.05 mM 2-mercaptoethanol, and 20 ng/mL mouse recombinant macrophage colony stimulating factor (M-CSF) at 37° C., 5% CO2, and 95% humidity. Cells were allowed to expand until reaching saturation at which point they were subcultured or harvested for assay use.
M-NFS-60 Cell Proliferation Assay
A serial dilution of test compound was dispensed into a 384-well black clear bottom plate (Corning, Corning, N.Y.). Two thousand five hundred cells were added per well in 50 μL complete growth medium. Plates were incubated for 67 h at 37° C., 5% CO2, and 95% humidity. At the end of the incubation period 10 μL of a 440 μM solution of resazurin (Sigma, St. Louis, Mo.) in PBS was added to each well and incubated for an additional 5 h at 37° C., 5% CO2, and 95% humidity. Plates were read on a Synergy2 reader (Biotek, Winooski, Vt.) using an excitation of 540 nm and an emission of 600 nm. IC50 values were calculated from a series of percent inhibition values determined at a range of inhibitor concentrations using software routines as implemented in the GraphPad Prism software package.

The target of test [3] is unphosphorylated c-KIT kinase (uKIT, Seq. ID no. 2) (Homo sapiens (Human), UniProt P10721). Put plainly: uKit kinase assay (coupled pyruvate kinase/lactate dehydrogenase). In kind it is biochemical. The following applies: enzymatic assay, ATP 2000 μM. The protocol: uKit Kinase (Seq. ID No. 2) Assay
unphosphorylated c-KIT kinase (uKIT, Seq. ID no. 2), sequence (P10721 other isoform, or with tags, fused parts or gaps): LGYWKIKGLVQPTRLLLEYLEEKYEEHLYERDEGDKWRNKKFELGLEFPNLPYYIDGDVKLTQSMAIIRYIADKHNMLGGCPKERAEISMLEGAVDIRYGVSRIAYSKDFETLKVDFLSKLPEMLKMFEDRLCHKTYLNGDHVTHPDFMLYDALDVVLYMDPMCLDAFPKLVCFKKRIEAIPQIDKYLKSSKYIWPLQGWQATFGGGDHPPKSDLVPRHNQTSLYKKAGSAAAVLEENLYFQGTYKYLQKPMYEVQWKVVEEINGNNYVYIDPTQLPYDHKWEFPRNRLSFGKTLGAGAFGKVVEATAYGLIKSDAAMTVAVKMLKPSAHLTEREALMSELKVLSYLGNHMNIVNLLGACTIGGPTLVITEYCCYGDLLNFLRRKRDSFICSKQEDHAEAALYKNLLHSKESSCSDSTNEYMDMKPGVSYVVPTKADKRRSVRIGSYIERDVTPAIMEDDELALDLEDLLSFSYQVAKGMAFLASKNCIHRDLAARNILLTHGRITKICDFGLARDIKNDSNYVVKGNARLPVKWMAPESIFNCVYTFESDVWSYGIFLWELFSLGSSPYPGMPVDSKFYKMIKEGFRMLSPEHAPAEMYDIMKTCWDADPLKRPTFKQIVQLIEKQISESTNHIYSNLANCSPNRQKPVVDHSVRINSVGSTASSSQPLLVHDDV
Activity of unphosphorylated c-KIT kinase (uKIT, Seq. ID no. 2) was determined by following the production of ADP from the KIT kinase reaction with ATP and poly E4Y as substrates through coupling with the pyruvate kinase/lactate dehydrogenase system (e.g., Schindler et al. Science (2000) 289: 1938-1942). In this assay, the oxidation of NADH (thus the decrease at A340 nm) was continuously monitored spectrophometrically. The reaction mixture (100 μl) contained unphosphorylated KIT (12 nM), polyE4Y (1 mg/mL), MgCl2 (10 mM), pyruvate kinase (4 units), lactate dehydrogenase (0.7 units), phosphoenol pyruvate (1 mM), and NADH (0.28 mM) and ATP (2000 μM) in 90 mM Tris buffer containing 0.2% octyl-glucoside and 1% DMSO, pH 7.5. The inhibition reaction was started by mixing serial diluted test compound with the above reaction mixture. The absorption at 340 nm was monitored continuously for 4 hours at 30° C. on Synergy 2 plate reader (BioTech). Reaction rates around 3 to 4 h time frame were used to calculate % inhibitions, from which IC50 values were generated.
uKit with N-Terminal GST Fusion Used for Screening (Seq ID No. 2)

unphosphorylated PDGFRβ kinase (uPDGFRβ, Seq. ID No. 3), sequence (P09619 557-1106): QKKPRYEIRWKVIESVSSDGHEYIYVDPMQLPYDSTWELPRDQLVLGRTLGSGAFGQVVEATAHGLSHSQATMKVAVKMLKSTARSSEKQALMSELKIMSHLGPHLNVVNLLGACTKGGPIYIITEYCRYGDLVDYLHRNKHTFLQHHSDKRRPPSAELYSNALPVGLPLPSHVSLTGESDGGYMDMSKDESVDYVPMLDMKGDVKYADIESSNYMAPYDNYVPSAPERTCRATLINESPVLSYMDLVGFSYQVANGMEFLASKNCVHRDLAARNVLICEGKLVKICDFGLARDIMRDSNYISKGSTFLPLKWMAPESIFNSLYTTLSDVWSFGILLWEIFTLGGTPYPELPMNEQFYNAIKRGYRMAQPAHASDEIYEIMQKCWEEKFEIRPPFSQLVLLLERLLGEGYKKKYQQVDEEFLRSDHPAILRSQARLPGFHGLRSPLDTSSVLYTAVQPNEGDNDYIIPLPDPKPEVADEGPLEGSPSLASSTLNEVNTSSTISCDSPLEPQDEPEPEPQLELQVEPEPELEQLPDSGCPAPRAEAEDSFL

On to `Cn1cc(-c2cc(Oc3ccc(NC(=O)N4CCN([C@@H]5CCOC5)C4=O)nc3)ccn2)cn1` [Example 27, (R)—N-(5-((2-(1-methyl-1H-pyrazol-4-yl)pyridin-4-yl)oxy)pyridin-2-yl)-2-oxo-3-(tetrahydrofuran-3-yl)imidazolidine-1-carboxamide], for which the IC50 was less than 0.01 µM in the test on osteoclast precursors, greater than 1 µM in test [1], less than 0.01 µM in test [2] and 0.01 to 0.1 µM with M-NFS-60 cells.

With `Cn1cc(-c2cc(Oc3ccc(NC(=O)N4CC(C)(C)N(C5CCCCC5)C4=O)nc3)ccn2)cn1` [Example 31, 3-cyclohexyl-4,4-dimethyl-N-(5-((2-(1-methyl-1H-pyrazol-4-yl)pyridin-4-yl)oxy)pyridin-2-yl)-2-oxoimidazolidine-1-carboxamide], the IC50 in test [1] was greater than 1 µM; in test [2], 0.01 to 0.1 µM; with M-NFS-60 cells, greater than 1 µM; in test [3], 0.1 to 1 µM.

Regarding `Cc1nc(NC(=O)N2CC(C)(C)N(C3CCCCC3)C2=O)ccc1Oc1ccnc(-c2cnn(C)c2)c1` [Example 32, 3-cyclohexyl-4,4-dimethyl-N-(6-methyl-5-((2-(1-methyl-1H-pyrazol-4-yl)pyridin-4-yl)oxy)pyridin-2-yl)-2-oxoimidazolidine-1-carboxamide], the IC50 in test [1] is greater than 1 µM; in test [2], 0.1 to 1 µM; in test [3], 0.1 to 1 µM.

Take `COCCCN1CCN(C(=O)Nc2cc(Cl)c(Oc3ccnc(-c4cnn(C)c4)c3)cc2F)C1=O` [Example 103, N-(5-chloro-2-fluoro-4-((2-(1-methyl-1H-pyrazol-4-yl)pyridin-4-yl)oxy)phenyl)-3-(3-methoxypropyl)-2-oxoimidazolidine-1-carboxamide]: the IC50 in the test with osteoclast precursors (Osteoclast) is 0.1 to 1 µM; in test [1] it was greater than 1 µM; in test [2], 0.01 to 0.1 µM; in the test with M-NFS-60 cells, 0.1 to 1 µM.

With `Cn1cc(-c2cc(Oc3cc(F)c(NC(=O)N4CCN(C5COC5)C4=O)cc3Cl)ccn2)cn1` [Example 104, N-(5-chloro-2-fluoro-4-((2-(1-methyl-1H-pyrazol-4-yl)pyridin-4-yl)oxy)phenyl)-3-(oxetan-3-yl)-2-oxoimidazolidine-1-carboxamide], the IC50 in the test on osteoclast precursors (Osteoclast) is 0.1 to 1 µM; in test [1], greater than 1 µM; in test [2] it was 0.1 to 1 µM; in the test on M-NFS-60 cells, greater than 1 µM.

On to `COC[C@H](C)N1CCN(C(=O)Nc2cc(Cl)c(Oc3ccnc(-c4cnn(C)c4)c3)cc2F)C1=O` [Example 105, (S)—N-(5-chloro-2-fluoro-4-((2-(1-methyl-1H-pyrazol-4-yl)pyridin-4-yl)oxy)phenyl)-3-(1-methoxypropan-2-yl)-2-oxoimidazolidine-1-carboxamide], for which the IC50 is 0.01 to 0.1 µM with osteoclast precursors (Osteoclast), greater than 1 µM in test [1], 0.01 to 0.1 µM in test [2] and 0.1 to 1 µM in the test with M-NFS-60 cells.

Consider `Cn1cc(-c2cc(Oc3cc(F)c(NC(=O)N4CCN(CCOC(F)(F)F)C4=O)cc3Cl)ccn2)cn1` [Example 106, N-(5-chloro-2-fluoro-4-((2-(1-methyl-1H-pyrazol-4-yl)pyridin-4-yl)oxy)phenyl)-2-oxo-3-(2-(trifluoromethoxy)ethyl)imidazolidine-1-carboxamide], for which the IC50 in the test on osteoclast precursors (Osteoclast) is 0.1 to 1 µM; in test [1], greater than 1 µM; in test [2] it was 0.01 to 0.1 µM; in the test on M-NFS-60 cells, greater than 1 µM.

Take `Cn1cc(-c2cc(Oc3cc(F)c(NC(=O)N4CCN(C5CCCCC5)C4=O)cc3Cl)ccn2)cn1` [Example 107, N-(5-chloro-2-fluoro-4-((2-(1-methyl-1H-pyrazol-4-yl)pyridin-4-yl)oxy)phenyl)-3-cyclohexyl-2-oxoimidazolidine-1-carboxamide]: the IC50 in the test on osteoclast precursors (Osteoclast) is 0.01 to 0.1 µM; in test [1], 0.1 to 1 µM; in test [2] it was less than 0.01 µM; in the test on M-NFS-60 cells it was 0.01 to 0.1 µM.

As to `COC(C)(C)CCN1CCN(C(=O)Nc2cc(Cl)c(Oc3ccnc(-c4cnn(C)c4)c3)cc2F)C1=O` [Example 108, N-(5-chloro-2-fluoro-4-((2-(1-methyl-1H-pyrazol-4-yl)pyridin-4-yl)oxy)phenyl)-3-(3-methoxy-3-methylbutyl)-2-oxoimidazolidine-1-carboxamide], the IC50 in the test on osteoclast precursors (Osteoclast) is 0.1 to 1 µM; in test [1], greater than 1 µM; in test [2] it was 0.01 to 0.1 µM; with M-NFS-60 cells, 0.1 to 1 µM.

For the compound `Cn1cc(-c2cc(Oc3cc(F)c(NC(=O)N4CCN(C5CCC(F)(F)CC5)C4=O)cc3Cl)ccn2)cn1` [Example 110, N-(5-chloro-2-fluoro-4-((2-(1-methyl-1H-pyrazol-4-yl)pyridin-4-yl)oxy)phenyl)-3-(4,4-difluorocyclohexyl)-2-oxoimidazolidine-1-carboxamide], the IC50 in test [1] is greater than 1 µM; in test [2], less than 0.01 µM; with M-NFS-60 cells, 0.01 to 0.1 µM.

Take `Cn1cc(-c2cc(Oc3cc(F)c(NC(=O)N4CCN(C5CCCC5)C4=O)cc3Cl)ccn2)cn1` [Example 111, N-(5-chloro-2-fluoro-4-((2-(1-methyl-1H-pyrazol-4-yl)pyridin-4-yl)oxy)phenyl)-3-cyclopentyl-2-oxoimidazolidine-1-carboxamide]: the IC50 in the test on osteoclast precursors (Osteoclast) was less than 0.01 µM; in test [1], greater than 1 µM; in test [2] it was less than 0.01 µM; with M-NFS-60 cells it was 0.01 to 0.1 µM.
